From ChEMBL document CHEMBL1147697, “Synthesis and structure-activity relationship of a novel, achiral series of TNF-alpha converting enzyme inhibitors” (Bioorg Med Chem Lett, 2006)
Values belong to the molecule of their own block, whether it stands above or below them.

Legend:
[1] = Dissociation constant, pKa of the compound; type: physicochemical
[2] = Partition coefficient, logP of the compound; type: physicochemical; conditions: octanol/water
[3] = Clearance in Beagle dog at 0.5 mg/kg, iv; type: ADME, organism-based, Canis lupus familiaris; parameters: dose 0.5 mg/kg, route intravenous; conditions: in vivo
[4] = Half life in Beagle dog at 0.5 mg/kg, iv; type: ADME, organism-based, Canis lupus familiaris; parameters: dose 0.5 mg/kg, route intravenous; conditions: in vivo
[5] = Half life in Beagle dog at 1 mg/kg, po; type: ADME, organism-based, Canis lupus familiaris; parameters: dose 1 mg/kg, route oral; conditions: in vivo
[6] = Volume of distribution in Beagle dog at 0.5 mg/kg, iv; type: ADME, organism-based, Canis lupus familiaris; parameters: dose 0.5 mg/kg, route intravenous; conditions: in vivo, read-out: Vdss
[7] = Tmax in Beagle dog at 1 mg/kg, po; type: ADME, organism-based, Canis lupus familiaris; parameters: dose 1 mg/kg, route oral; conditions: in vivo
[8] = Cmax in Beagle dog at 1 mg/kg, po; type: ADME, organism-based, Canis lupus familiaris; parameters: dose 1 mg/kg, route oral; conditions: in vivo
[9] = AUC in Beagle dog at 0.5 mg/kg, iv; type: ADME, organism-based, Canis lupus familiaris; parameters: dose 0.5 mg/kg, route intravenous; conditions: plasma
[10] = AUC in Beagle dog at 1 mg/kg, po; type: ADME, organism-based, Canis lupus familiaris; parameters: dose 1 mg/kg, route oral; conditions: plasma
[11] = Oral bioavailability in Beagle dog at 1 mg/kg, po; type: ADME, organism-based, Canis lupus familiaris; conditions: in vivo
[12] = Clearance in Sprague-Dawley rat at 3.3 mg/kg, iv; type: ADME, organism-based; parameters: dose 3.3 mg/kg, route intravenous; conditions: in vivo
[13] = Half life in Sprague-Dawley rat at 3.3 mg/kg, iv; type: ADME, organism-based; parameters: dose 3.3 mg/kg, route intravenous; conditions: in vivo
[14] = Half life in Sprague-Dawley rat at 6.7 mg/kg, po; type: ADME, organism-based; parameters: dose 6.7 mg/kg, route oral; conditions: in vivo
[15] = Volume of distribution in Sprague-Dawley rat at 3.3 mg/kg, iv; type: ADME, organism-based; parameters: dose 3.3 mg/kg, route intravenous; conditions: in vivo, read-out: Vdss
[16] = Tmax in Sprague-Dawley rat at 6.7 mg/kg, po; type: ADME, organism-based; parameters: dose 6.7 mg/kg, route oral; conditions: in vivo
[17] = Cmax in Sprague-Dawley rat at 6.7 mg/kg, po; type: ADME, organism-based; parameters: dose 6.7 mg/kg, route oral; conditions: in vivo
[18] = test system: Rattus norvegicus; assay: AUC in Sprague-Dawley rat at 3.3 mg/kg, iv; type: ADME, organism-based, Plasma; parameters: dose 3.3 mg/kg, route intravenous; conditions: in vivo
[19] = Stability in rat liver S9 fraction after 30 mins; type: ADME, organism-based; conditions: read-out: Stability
[20] = Stability in dog liver S9 fraction after 30 mins; type: ADME, organism-based, Canis lupus familiaris; conditions: read-out: Stability
[21] = Stability in chimp liver S9 fraction after 30 mins; type: ADME, Pan troglodytes; conditions: chimpanzee, read-out: Stability
[22] = Stability in human liver S9 fraction after 30 mins; type: ADME, organism-based; conditions: read-out: Stability
[23] = test system: Rattus norvegicus; assay: AUC in Sprague-Dawley rat at 6.7 mg/kg, po; type: ADME, organism-based, Plasma; parameters: dose 6.7 mg/kg, route oral; conditions: in vivo
[24] = test system: Rattus norvegicus; assay: Oral bioavailability in Sprague-Dawley rat at 6.7 mg/kg, po; type: ADME, organism-based; conditions: in vivo
[25] = Volume of distribution in Sprague-Dawley rat at 2 mg/kg, iv; type: ADME, organism-based; parameters: dose 2 mg/kg, route intravenous; conditions: in vivo, read-out: Vdss
[26] = Tmax in Sprague-Dawley rat at 30 mg/kg, po; type: ADME, organism-based; parameters: dose 30 mg/kg, route oral; conditions: in vivo
[27] = Cmax in Sprague-Dawley rat at 30 mg/kg, po; type: ADME, organism-based; parameters: dose 30 mg/kg, route oral; conditions: in vivo
[28] = AUC in Sprague-Dawley rat at 2 mg/kg, iv; type: ADME, organism-based; parameters: dose 2 mg/kg, route intravenous; conditions: plasma
[29] = AUC in Sprague-Dawley rat at 30 mg/kg, po; type: ADME, organism-based; parameters: dose 30 mg/kg, route oral; conditions: plasma
[30] = Oral bioavailability in Sprague-Dawley rat at 30 mg/kg, po; type: ADME, organism-based; conditions: in vivo
[31] = Clearance in Beagle dog at 2 mg/kg, iv; type: ADME, organism-based, Canis lupus familiaris; parameters: dose 2 mg/kg, route intravenous; conditions: in vivo
[32] = Half life in Beagle dog at 2 mg/kg, iv; type: ADME, organism-based, Canis lupus familiaris; parameters: dose 2 mg/kg, route intravenous; conditions: in vivo
[33] = Half life in Beagle dog at 10 mg/kg, po; type: ADME, organism-based, Canis lupus familiaris; parameters: dose 10 mg/kg, route oral; conditions: in vivo
[34] = Volume of distribution in Beagle dog at 2 mg/kg, iv; type: ADME, organism-based, Canis lupus familiaris; parameters: dose 2 mg/kg, route intravenous; conditions: in vivo, read-out: Vdss
[35] = Tmax in Beagle dog at 10 mg/kg, po; type: ADME, organism-based, Canis lupus familiaris; parameters: dose 10 mg/kg, route oral; conditions: in vivo
[36] = Cmax in Beagle dog at 10 mg/kg, po; type: ADME, organism-based, Canis lupus familiaris; parameters: dose 10 mg/kg, route oral; conditions: in vivo
[37] = AUC in Beagle dog at 2 mg/kg, iv; type: ADME, organism-based, Canis lupus familiaris; parameters: dose 2 mg/kg, route intravenous; conditions: plasma
[38] = AUC in Beagle dog at 10 mg/kg, po; type: ADME, organism-based, Canis lupus familiaris; parameters: dose 10 mg/kg, route oral; conditions: plasma
[39] = Oral bioavailability in Beagle dog at 10 mg/kg, po; type: ADME, organism-based, Canis lupus familiaris; conditions: in vivo
[40] = Clearance in Sprague-Dawley rat at 2 mg/kg, iv; type: ADME, organism-based; parameters: dose 2 mg/kg, route intravenous; conditions: in vivo
[41] = Half life in Sprague-Dawley rat at 2 mg/kg, iv; type: ADME, organism-based; parameters: dose 2 mg/kg, route intravenous; conditions: in vivo
[42] = Half life in Sprague-Dawley rat at 30 mg/kg, po; type: ADME, organism-based; parameters: dose 30 mg/kg, route oral; conditions: in vivo

SMILES: Cc1cc(COc2ccc(C(=O)NC3(CC(=O)NO)CCN(C4=NCCS4)CC3)cc2)c2ccccc2n1
- pKa [1]: 7.23
- logP [2]: 2.78

SMILES: Cc1cc(COc2ccc(C(=O)NC3(CC(=O)NO)CCN(CC(C)(C)C)CC3)cc2)c2ccccc2n1
- pKa [1]: 7.75
- logP [2]: 3.66

SMILES: Cc1cc(COc2ccc(C(=O)NC3(CC(=O)NO)CCN(C(C)(C)C)CC3)cc2)c2ccccc2n1
- pKa [1]: 9
- logP [2]: 1.95

SMILES: C#CC(C)(C)N1CCC(CC(=O)NO)(NC(=O)c2ccc(OCc3cc(C)nc4ccccc34)cc2)CC1
- pKa [1]: 6.58
- logP [2]: 3.43

SMILES: Cc1cc(COc2ccc(C(=O)NC3(CC(=O)NO)CCN(CCF)CC3)cc2)c2ccccc2n1
- pKa [1]: 7.2
- logP [2]: 2.7

SMILES: CCS(=O)(=O)CCN1CCC(CC(=O)NO)(NC(=O)c2ccc(OCc3cc(C)nc4ccccc34)cc2)CC1
- pKa [1]: 6.06
- logP [2]: 2.48

The remaining lines, values ahead:

- pKa [1]: 8.4
- logP [2]: 2.13
- clearance [3]: 5 mL/min/kg
- half-life [4]: 1.5 h
- half-life [5]: 2.1 h
- Vd [6]: 0.3 L/kg
- Tmax [7]: 0.63 h
- Cmax [8]: 0.126 µM
- AUC [9]: 2.19 µM·h
- AUC [10]: 0.343 µM·h
- bioavailability [11]: 8%
- clearance [12]: 10 mL/min/kg
- half-life [13]: 2.1 h
- half-life [14]: 2.2 h
- Vd [15]: 0.3 L/kg
- Tmax [16]: 0.3 h
- Cmax [17]: 2.48 µM
- AUC [18]: 11.359 µM·h
- remaining at 0.5 h [19]: 100%
- remaining at 0.5 h [20]: 100%
- remaining at 0.5 h [21]: 100%
- remaining at 0.5 h [22]: 92%
- AUC [23]: 8.358 µM·h
- F [24]: 17%
SMILES: Cc1cc(COc2ccc(C(=O)NC3(CC(=O)NO)CCNCC3)cc2)c2ccccc2n1

- Vd [25]: 0.7 L/kg
- Tmax [26]: 0.4 h
- Cmax [27]: 3.75 µM
- AUC [28]: 2.21 µM·h
- AUC [29]: 4.86 µM·h
- bioavailability [30]: 15%
- remaining at 0.5 h [21]: 36.7%
- remaining at 0.5 h [22]: 83.8%
- clearance [31]: 38.3 mL/min/kg
- half-life [32]: 4.2 h
- half-life [33]: 4 h
- Vd [34]: 2.5 L/kg
- Tmax [35]: 0.75 h
- Cmax [36]: 4.49 µM
- AUC [37]: 1.97 µM·h
- AUC [38]: 7.72 µM·h
- bioavailability [39]: 79%
- clearance [40]: 26.7 mL/min/kg
- half-life [41]: 0.3 h
- half-life [42]: 1.8 h
SMILES: Cc1cc(COc2ccc(C(=O)NC3(CC(=O)NO)CCOCC3)cc2)c2ccccc2n1

- pKa [1]: 10.1
- logP [2]: 1.62
SMILES: Cc1cc(COc2ccc(C(=O)NC3(CC(=O)NO)CCCCC3)cc2)c2ccccc2n1
